Measured values published in PubChem BioAssay AID248 (DTP/NCI, 2004).
Toxic doses and inconclusive results are not listed. Rule as the data show it: active = T/C of 150% or more; inactive = T/C below 125%.

System: L1210 leukemia ip in BDF1 mice, survival T/C
Assay: NCI In Vivo Anticancer Drug Screen. Data for tumor model L1210 Leukemia (intraperitoneal) in B6D2F1 (BDF1) mice
Settings: endpoint: mean survival time, higher = longer survival
Method in brief: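 In this screen, tumor-bearing mice given compound are compared to those given vehicle, and their survival values are reported as a treated-to-control quotient.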

[1] = dose: 200.0 mg/kg/injection, schedule: Q01DX005 (ip), vehicle: saline
[2] = dose: 100.0 mg/kg/injection, schedule: Q01DX001 (ip), vehicle: carboxymethylcellulose (CMC)
[3] = dose: 100.0 mg/kg/injection, schedule: Q01DX001 (ip), vehicle: Klucel (hydroxypropylcellulose) (HPC)
[4] = dose: 100.0 mg/kg/injection, schedule: Q01DX001 (ip), vehicle: saline
[5] = dose: 100.0 mg/kg/injection, schedule: Q01DX009 (ip), vehicle: saline with Tween-80
[6] = dose: 200.0 mg/kg/injection, schedule: Q01DX009 (ip), vehicle: saline with Tween-80
[7] = dose: 100.0 mg/kg/injection, schedule: Q01DX009 (ip), vehicle: saline
[8] = dose: 100.0 mg/kg/injection, schedule: Q04DX003 (ip), vehicle: saline with Tween-80
[9] = dose: 200.0 mg/kg/injection, schedule: Q01DX001 (ip), vehicle: carboxymethylcellulose (CMC)
[10] = dose: 200.0 mg/kg/injection, schedule: Q01DX001 (ip), vehicle: saline
[11] = dose: 400.0 mg/kg/injection, schedule: Q01DX001 (ip), vehicle: carboxymethylcellulose (CMC)
[12] = dose: 100.0 mg/kg/injection, schedule: Q04DX003 (ip), vehicle: Klucel (hydroxypropylcellulose) (HPC)
[13] = dose: 200.0 mg/kg/injection, schedule: Q04DX003 (ip), vehicle: Klucel (hydroxypropylcellulose) (HPC)
[14] = dose: 400.0 mg/kg/injection, schedule: Q04DX003 (ip), vehicle: Klucel (hydroxypropylcellulose) (HPC)
[15] = dose: 50.0 mg/kg/injection, schedule: Q01DX009 (ip), vehicle: other
[16] = dose: 100.0 mg/kg/injection, schedule: Q01DX009 (ip), vehicle: other
[17] = dose: 200.0 mg/kg/injection, schedule: Q01DX009 (ip), vehicle: other
[18] = dose: 100.0 mg/kg/injection, schedule: Q04DX003 (ip), vehicle: saline
[19] = dose: 200.0 mg/kg/injection, schedule: Q04DX003 (ip), vehicle: saline
[20] = dose: 400.0 mg/kg/injection, schedule: Q04DX003 (ip), vehicle: saline
[21] = dose: 400.0 mg/kg/injection, schedule: Q01DX009 (ip), vehicle: saline with Tween-80

Measured: T/C

O=c1[nH][nH]c(=O)c2c(C3OC(CO)C(O)C3O)[nH]nc12 (centres undefined)
inactive: dose: 100.0 mg/kg/injection, schedule: Q01DX005 (ip), vehicle: saline 90 % of control | [1] 97 % of control

CCOC(COc1ccccc1)c1ccccc1 (centres undefined)
inactive: dose: 100.0 mg/kg/injection, schedule: Q01DX009 (ip), vehicle: Klucel (hydroxypropylcellulose) (HPC) 106 % of control | dose: 200.0 mg/kg/injection, schedule: Q01DX009 (ip), vehicle: Klucel (hydroxypropylcellulose) (HPC) 113 % of control | dose: 400.0 mg/kg/injection, schedule: Q01DX009 (ip), vehicle: Klucel (hydroxypropylcellulose) (HPC) 106 % of control

CCN(CC)CCNC(Cc1ccccc1)c1cccc(OC)c1 (centres undefined)
inactive: [2] 96 % of control

CC1(c2ccc(C(O)c3ccccc3)s2)OCCO1 (centres undefined)
inactive: dose: 33.0 mg/kg/injection, schedule: Q01DX009 (ip), vehicle: carboxymethylcellulose (CMC) 103 % of control | dose: 37.5 mg/kg/injection, schedule: Q04DX003 (ip), vehicle: Klucel (hydroxypropylcellulose) (HPC) 109 % of control | dose: 50.0 mg/kg/injection, schedule: Q01DX009 (ip), vehicle: carboxymethylcellulose (CMC) 98 % of control | dose: 75.0 mg/kg/injection, schedule: Q01DX001 (ip), vehicle: carboxymethylcellulose (CMC) 109 % of control | dose: 75.0 mg/kg/injection, schedule: Q01DX009 (ip), vehicle: carboxymethylcellulose (CMC) 103 % of control | dose: 75.0 mg/kg/injection, schedule: Q04DX003 (ip), vehicle: Klucel (hydroxypropylcellulose) (HPC) 109 % of control | [3] 103 % of control | dose: 150.0 mg/kg/injection, schedule: Q01DX001 (ip), vehicle: Klucel (hydroxypropylcellulose) (HPC) 97 % of control | dose: 150.0 mg/kg/injection, schedule: Q01DX009 (ip), vehicle: carboxymethylcellulose (CMC) 113 % of control | dose: 225.0 mg/kg/injection, schedule: Q01DX001 (ip), vehicle: Klucel (hydroxypropylcellulose) (HPC) 109 % of control

OC12CCCCC1C[n+]1ccccc1C2 (centres undefined)
inactive: [4] 101 % of control

CCOC(=O)C(CC)C(O)c1cccc(OC)c1 (centres undefined)
inactive: dose: 50.0 mg/kg/injection, schedule: Q01DX009 (ip), vehicle: saline with Tween-80 94 % of control | [5] 94 % of control | [6] 94 % of control

C=CC[n+]1ccc2ccccc2c1
inactive: dose: 25.0 mg/kg/injection, schedule: Q01DX009 (ip), vehicle: saline 108 % of control | dose: 50.0 mg/kg/injection, schedule: Q01DX009 (ip), vehicle: saline 102 % of control | [7] 105 % of control

COc1ccc2c(c1)CC/C(=C\c1ccc(OCCN3CCCC3)cc1)C2=O
inactive: dose: 12.5 mg/kg/injection, schedule: Q04DX003 (ip), vehicle: saline with Tween-80 105 % of control | dose: 25.0 mg/kg/injection, schedule: Q04DX003 (ip), vehicle: saline with Tween-80 107 % of control | dose: 50.0 mg/kg/injection, schedule: Q04DX003 (ip), vehicle: saline with Tween-80 100 % of control | [8] 111 % of control

c1ccc(P(OCCCCOP(c2ccccc2)c2ccccc2)c2ccccc2)cc1
inactive: dose: 50.0 mg/kg/injection, schedule: Q01DX001 (ip), vehicle: saline 95 % of control | [2] 103 % of control | [4] 97 % of control | [9] 114 % of control | [10] 86 % of control | [11] 103 % of control | dose: 400.0 mg/kg/injection, schedule: Q01DX001 (ip), vehicle: saline 95 % of control

OCC1SC(n2cnc3c(=S)nc[nH]c32)C(O)C1O (centres undefined)
inactive: [1] 103 % of control

CN(C)Cc1c(C=C(c2ccccc2)c2ccccc2)ccc2ccccc12
inactive: dose: 50.0 mg/kg/injection, schedule: Q01DX001 (ip), vehicle: carboxymethylcellulose (CMC) 94 % of control | [2] 96 % of control | [9] 94 % of control | [11] 96 % of control

O=C1N(c2cccnc2)C(c2ccccc2)C1(c1ccccc1)c1ccccc1 (centres undefined)
inactive: dose: 100.0 mg/kg/injection, schedule: Q04DX003 (ip), vehicle: gum acacia 91 % of control | dose: 200.0 mg/kg/injection, schedule: Q04DX003 (ip), vehicle: gum acacia 87 % of control | dose: 400.0 mg/kg/injection, schedule: Q04DX003 (ip), vehicle: gum acacia 91 % of control

CC(=O)Nc1[nH]ncc1C(N)=O
inactive: dose: 50.0 mg/kg/injection, schedule: Q01DX001 (ip), vehicle: Klucel (hydroxypropylcellulose) (HPC) 100 % of control | [3] 100 % of control | dose: 200.0 mg/kg/injection, schedule: Q01DX001 (ip), vehicle: Klucel (hydroxypropylcellulose) (HPC) 98 % of control

COc1ccc(Cl)cc1NC(=O)OC/C=C/c1ccccc1
inactive: dose: 100.0 mg/kg/injection, schedule: Q01DX009 (ip), vehicle: gum acacia 96 % of control | dose: 200.0 mg/kg/injection, schedule: Q01DX009 (ip), vehicle: gum acacia 96 % of control | dose: 400.0 mg/kg/injection, schedule: Q01DX009 (ip), vehicle: gum acacia 87 % of control

Cn1cnc2nc(Cl)[nH]c(=O)c21
inactive: [12] 100 % of control | [13] 97 % of control | [14] 95 % of control

COc1ccc(CNCCCCO)cc1
inactive: [15] 106 % of control | dose: 100.0 mg/kg/injection, schedule: Q01DX001 (ip), vehicle: other 104 % of control | [16] 102 % of control | dose: 200.0 mg/kg/injection, schedule: Q01DX001 (ip), vehicle: other 106 % of control | [17] 95 % of control | dose: 400.0 mg/kg/injection, schedule: Q01DX001 (ip), vehicle: other 97 % of control

S=C(NCCS)Nc1ccccc1
inactive: [12] 98 % of control | [13] 105 % of control | [14] 99 % of control

COc1cccc2c1C(=O)c1c(OC)c(C(Br)Br)cc(OC)c1C2=O
inactive: dose: 12.5 mg/kg/injection, schedule: Q01DX009 (ip), vehicle: other 99 % of control | dose: 25.0 mg/kg/injection, schedule: Q01DX009 (ip), vehicle: other 89 % of control | [15] 89 % of control | [16] 89 % of control | [17] 87 % of control

CC(C)(CCCl)N(Cc1ccccc1)Cc1ccccc1
inactive: [7] 93 % of control | [18] 99 % of control | dose: 200.0 mg/kg/injection, schedule: Q01DX009 (ip), vehicle: saline 90 % of control | [19] 95 % of control | [20] 89 % of control

CCOC(=O)/C=C(\C)C(C)=O
inactive: [5] 92 % of control | [8] 98 % of control | [6] 96 % of control | dose: 200.0 mg/kg/injection, schedule: Q04DX003 (ip), vehicle: saline with Tween-80 103 % of control | [21] 92 % of control | dose: 400.0 mg/kg/injection, schedule: Q04DX003 (ip), vehicle: saline with Tween-80 104 % of control

Cc1ccc(CC(=O)N2CCOCC2)cc1
inactive: [2] 106 % of control | [9] 97 % of control | [11] 92 % of control

CCN(CC)CCN1C(=O)C(C)C=C(C)C=C1C (centres undefined)
inactive: dose: 9.0 mg/kg/injection, schedule: Q04DX003 (ip), vehicle: other 97 % of control | dose: 18.0 mg/kg/injection, schedule: Q04DX003 (ip), vehicle: other 92 % of control | dose: 19.0 mg/kg/injection, schedule: Q01DX009 (ip), vehicle: other 105 % of control | dose: 38.0 mg/kg/injection, schedule: Q01DX009 (ip), vehicle: other 105 % of control | dose: 75.0 mg/kg/injection, schedule: Q01DX001 (ip), vehicle: other 100 % of control | dose: 75.0 mg/kg/injection, schedule: Q01DX009 (ip), vehicle: other 105 % of control | dose: 75.0 mg/kg/injection, schedule: Q04DX003 (ip), vehicle: other 91 % of control

CCNc1nnnn1-c1ccccc1
inactive: [4] 97 % of control | [10] 101 % of control

O=P(CCCCl)(OCCCCl)OCCCCl
inactive: [18] 104 % of control | [19] 114 % of control | [20] 96 % of control

CCCCCCCC/C=C\CCCCCCCC(=O)OCC1CCCO1 (centres undefined)
inactive: [5] 95 % of control | [6] 90 % of control | [21] 92 % of control
